Reference: ChEMBL document CHEMBL1201862, “PubChem BioAssay data set” (2004)
Calls of active or inactive are those of the source.

Experiments:
[1] = target: T1, Tyrosyl-DNA phosphodiesterase 2 (Homo sapiens, UniProt O95551); experiment: potency against TDP2 phosphodiesterase activity – biochemical, epi absorbance, IC50, dose response (AID 743297)
T1 sequence (O95551 whole entry): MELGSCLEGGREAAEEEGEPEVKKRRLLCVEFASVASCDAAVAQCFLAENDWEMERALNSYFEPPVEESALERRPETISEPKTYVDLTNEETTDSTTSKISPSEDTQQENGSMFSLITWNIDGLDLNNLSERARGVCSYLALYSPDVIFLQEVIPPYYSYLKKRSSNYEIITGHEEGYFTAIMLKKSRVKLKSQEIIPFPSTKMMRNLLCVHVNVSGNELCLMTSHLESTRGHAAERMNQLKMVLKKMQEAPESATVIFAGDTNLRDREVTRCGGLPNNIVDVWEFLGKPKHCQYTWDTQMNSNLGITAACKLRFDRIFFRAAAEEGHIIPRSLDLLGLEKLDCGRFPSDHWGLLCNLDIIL

[2] = target: T2, Replicative DNA helicase DnaB (Mycobacterium tuberculosis, UniProt P9WMR3); experiment: DnaB intein splicing inhibitors, dose response, biochemical, cell-free fluorescence (AID 449749); type: functional
T2 sequence (P9WMR3 whole entry): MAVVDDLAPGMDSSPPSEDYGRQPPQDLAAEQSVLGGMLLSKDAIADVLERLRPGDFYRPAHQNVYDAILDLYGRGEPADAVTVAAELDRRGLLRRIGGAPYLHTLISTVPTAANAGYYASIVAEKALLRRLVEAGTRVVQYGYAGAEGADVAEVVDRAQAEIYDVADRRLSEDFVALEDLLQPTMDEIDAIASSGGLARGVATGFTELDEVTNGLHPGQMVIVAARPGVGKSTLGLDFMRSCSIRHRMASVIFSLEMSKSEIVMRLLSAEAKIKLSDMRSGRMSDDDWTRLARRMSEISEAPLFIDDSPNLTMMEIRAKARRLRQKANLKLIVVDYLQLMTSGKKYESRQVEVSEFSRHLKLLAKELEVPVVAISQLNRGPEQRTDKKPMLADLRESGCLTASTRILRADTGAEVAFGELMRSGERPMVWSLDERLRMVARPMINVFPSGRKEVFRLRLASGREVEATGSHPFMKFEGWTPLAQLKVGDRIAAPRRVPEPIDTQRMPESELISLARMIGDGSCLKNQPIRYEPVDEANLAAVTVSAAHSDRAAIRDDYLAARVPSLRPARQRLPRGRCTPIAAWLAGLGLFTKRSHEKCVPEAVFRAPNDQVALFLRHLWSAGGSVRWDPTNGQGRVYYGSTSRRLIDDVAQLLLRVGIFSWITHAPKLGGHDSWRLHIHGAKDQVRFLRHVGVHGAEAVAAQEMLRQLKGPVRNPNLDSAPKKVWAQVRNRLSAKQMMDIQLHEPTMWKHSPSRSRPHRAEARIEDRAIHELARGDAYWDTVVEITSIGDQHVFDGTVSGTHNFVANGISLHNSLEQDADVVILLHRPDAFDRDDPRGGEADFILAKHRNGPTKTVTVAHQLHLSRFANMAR

[3] = target: T3, Sentrin-specific protease 8 (Homo sapiens, UniProt Q96LD8); type: functional;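 also: kinetic enzyme assay of SENP8 cleaving a Nedd8 protein substrate, dose-response confirmation of screening hits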
T3 sequence (Q96LD8 whole entry): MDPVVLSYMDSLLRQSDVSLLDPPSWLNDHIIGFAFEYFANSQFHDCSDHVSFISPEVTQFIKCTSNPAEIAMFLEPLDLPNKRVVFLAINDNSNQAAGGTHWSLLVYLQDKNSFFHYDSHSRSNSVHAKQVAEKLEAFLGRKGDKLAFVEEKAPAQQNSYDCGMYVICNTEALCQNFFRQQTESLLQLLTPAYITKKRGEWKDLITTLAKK

Protein RecA = target: T4, Protein RecA (Mycobacterium tuberculosis, UniProt P9WHJ3); experiment: Fluorescence Cell-Free Homogeneous Dose Retest to Identify Inhibitors of RecA-Intein Splicing Activity. [Related pubchem assays (depositor defined):AID2097, AID2223, AID489010, AID492950]; type: functional
T4 sequence (P9WHJ3 whole entry): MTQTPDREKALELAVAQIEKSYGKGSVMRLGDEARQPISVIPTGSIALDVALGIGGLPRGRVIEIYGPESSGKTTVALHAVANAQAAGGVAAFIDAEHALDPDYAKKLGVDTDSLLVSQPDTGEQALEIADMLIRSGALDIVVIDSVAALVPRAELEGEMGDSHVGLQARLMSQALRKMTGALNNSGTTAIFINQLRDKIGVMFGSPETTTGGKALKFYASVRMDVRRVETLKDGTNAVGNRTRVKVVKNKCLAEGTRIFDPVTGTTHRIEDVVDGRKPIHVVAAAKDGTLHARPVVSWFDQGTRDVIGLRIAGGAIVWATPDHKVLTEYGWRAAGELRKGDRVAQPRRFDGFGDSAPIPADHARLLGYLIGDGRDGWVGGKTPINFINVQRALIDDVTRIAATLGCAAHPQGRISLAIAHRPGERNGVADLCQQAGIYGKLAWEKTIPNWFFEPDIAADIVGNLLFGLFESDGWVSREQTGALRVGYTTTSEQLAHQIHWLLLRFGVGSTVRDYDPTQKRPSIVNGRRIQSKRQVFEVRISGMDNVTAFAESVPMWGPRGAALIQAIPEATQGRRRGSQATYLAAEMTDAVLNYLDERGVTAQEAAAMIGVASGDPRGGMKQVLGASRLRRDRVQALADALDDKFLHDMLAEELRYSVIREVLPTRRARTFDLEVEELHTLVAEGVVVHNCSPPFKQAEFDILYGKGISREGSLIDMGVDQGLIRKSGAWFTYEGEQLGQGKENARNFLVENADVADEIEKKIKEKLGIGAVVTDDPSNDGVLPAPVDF

Orexin receptor type 2 [4] = target: T5, Orexin receptor type 2 (Homo sapiens, UniProt O43614); experiment: Counterscreen assay for antagonists of the orexin 1 receptor (OX1R; HCRTR1): Homogeneous Time Resolved Fluorescence (HTRF)-based cell-based dose response assay for antagonists of the orexin 2 receptor (OX2R; HCRTR2), run by assay provider.; type: functional
T5 sequence (O43614 whole entry): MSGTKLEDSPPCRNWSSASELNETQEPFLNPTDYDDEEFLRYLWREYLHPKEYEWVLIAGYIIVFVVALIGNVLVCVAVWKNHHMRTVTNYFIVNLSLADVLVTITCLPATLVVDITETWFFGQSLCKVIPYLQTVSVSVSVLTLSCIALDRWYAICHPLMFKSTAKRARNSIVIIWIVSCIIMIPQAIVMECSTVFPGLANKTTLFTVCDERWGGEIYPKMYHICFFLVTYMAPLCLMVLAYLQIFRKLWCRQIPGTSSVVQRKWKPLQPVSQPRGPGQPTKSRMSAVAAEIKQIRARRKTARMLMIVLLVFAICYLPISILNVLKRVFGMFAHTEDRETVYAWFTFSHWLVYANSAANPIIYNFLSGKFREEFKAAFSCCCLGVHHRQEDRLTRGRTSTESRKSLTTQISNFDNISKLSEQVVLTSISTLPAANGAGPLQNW

Orexin receptor type 2 [5] = target: T5, Orexin receptor type 2; experiment: Counterscreen assay for antagonists of the orexin 1 receptor (OX1R; HCRTR1): Fluorescence-based cell-based dose response assay for antagonists of the orexin 2 receptor (OX2R; HCRTR2), run by assay provider.; type: functional
CHO-K1 = experiment: (§1) Counterscreen for antagonists of the orexin 1 receptor (OX1R; HCRTR1): Homogeneous time resolved fluorescence (HTRF)-based cell-based dose response assay to identify antagonists of the parental CHO-K1 cell line. [Related pubchem assays (depositor defined):AID434989, AID435008, AID463079, AID485270, AID492963, AID492964, AID492965, AID493232, AID504699, AID504701]; type: functional; details: Cricetulus griseus
[6] = target: T6, Orexin/Hypocretin receptor type 1 (Homo sapiens, UniProt O43613); experiment: Homogeneous Time Resolved Fluorescence (HTRF)-based cell-based high throughput dose response assay for antagonists of the orexin 1 receptor (OX1R; HCRTR1). [Related pubchem assays (depositor defined):AID434989, AID435008, AID463079, AID485270, AID492963, AID492964, AID492965, AID493232, AID504717, AID504718]; type: functional
T6 sequence (O43613 whole entry): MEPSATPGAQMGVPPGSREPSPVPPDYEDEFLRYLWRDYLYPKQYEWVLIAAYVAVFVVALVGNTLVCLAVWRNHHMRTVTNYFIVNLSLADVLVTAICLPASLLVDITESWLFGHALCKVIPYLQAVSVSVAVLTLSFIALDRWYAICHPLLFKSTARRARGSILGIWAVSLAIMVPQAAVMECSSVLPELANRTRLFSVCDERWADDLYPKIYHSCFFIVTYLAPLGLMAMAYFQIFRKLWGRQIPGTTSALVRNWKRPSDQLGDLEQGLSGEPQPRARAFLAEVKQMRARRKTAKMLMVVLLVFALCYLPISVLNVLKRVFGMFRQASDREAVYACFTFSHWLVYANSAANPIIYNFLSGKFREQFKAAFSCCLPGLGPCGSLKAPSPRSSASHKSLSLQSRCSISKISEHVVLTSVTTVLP

[7] = target: T6, Orexin/Hypocretin receptor type 1; experiment: Fluorescence-based cell-based high throughput dose response assay for antagonists of the orexin 1 receptor (OX1R; HCRTR1). [Related pubchem assays (depositor defined):AID434989, AID435008, AID463079, AID485270, AID492963, AID492964, AID492965, AID493232, AID504717, AID504718]; type: functional
[8] = as §1, with “Fluorescence-based” for “Homogeneous time resolved fluorescence (HTRF)-based”, “cell-based high throughput” for “cell-based”, “CHO” for “CHO-K1”; type: functional
[9] = target: 72 kDa type IV collagenase (Homo sapiens, UniProt P08253); experiment: Dose Response validation of uHTS RPN11 inhibitor hits using a MMP-2 Fluorescence assay.; type: functional
Chain of 72 kDa type IV collagenase (P08253 whole entry): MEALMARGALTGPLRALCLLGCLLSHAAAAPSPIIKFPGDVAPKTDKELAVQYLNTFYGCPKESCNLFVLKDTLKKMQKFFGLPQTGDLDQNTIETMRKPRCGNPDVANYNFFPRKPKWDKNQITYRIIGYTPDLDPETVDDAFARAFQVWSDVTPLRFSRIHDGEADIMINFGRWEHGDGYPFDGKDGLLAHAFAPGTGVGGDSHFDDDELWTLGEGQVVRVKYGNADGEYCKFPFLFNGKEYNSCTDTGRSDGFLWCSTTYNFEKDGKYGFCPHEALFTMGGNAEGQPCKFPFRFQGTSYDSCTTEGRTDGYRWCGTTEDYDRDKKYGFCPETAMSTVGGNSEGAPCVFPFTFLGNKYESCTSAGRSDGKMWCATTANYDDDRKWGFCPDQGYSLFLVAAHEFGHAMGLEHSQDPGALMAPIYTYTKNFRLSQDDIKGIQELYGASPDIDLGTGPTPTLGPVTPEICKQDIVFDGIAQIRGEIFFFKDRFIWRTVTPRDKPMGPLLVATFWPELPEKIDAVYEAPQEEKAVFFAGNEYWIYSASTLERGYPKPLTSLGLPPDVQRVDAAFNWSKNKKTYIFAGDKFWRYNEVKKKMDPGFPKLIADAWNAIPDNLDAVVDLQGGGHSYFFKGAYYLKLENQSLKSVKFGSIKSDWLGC

Prothrombin = Prothrombin (Bos taurus, UniProt P00735); experiment: thrombin protease inhibitors – biochemical, fluorescence polarization, uHTS hits, dose response (AID 602369); type: functional
[10] = target: DNA (cytosine-5)-methyltransferase 1 (Homo sapiens, UniProt P26358); experiment: inhibition of DNA methylation by DNMT1 – biochemical, fluorescent molecular beacon, confirmation (AID 602386); type: functional
Chain of DNA (cytosine-5)-methyltransferase 1 (P26358 whole entry): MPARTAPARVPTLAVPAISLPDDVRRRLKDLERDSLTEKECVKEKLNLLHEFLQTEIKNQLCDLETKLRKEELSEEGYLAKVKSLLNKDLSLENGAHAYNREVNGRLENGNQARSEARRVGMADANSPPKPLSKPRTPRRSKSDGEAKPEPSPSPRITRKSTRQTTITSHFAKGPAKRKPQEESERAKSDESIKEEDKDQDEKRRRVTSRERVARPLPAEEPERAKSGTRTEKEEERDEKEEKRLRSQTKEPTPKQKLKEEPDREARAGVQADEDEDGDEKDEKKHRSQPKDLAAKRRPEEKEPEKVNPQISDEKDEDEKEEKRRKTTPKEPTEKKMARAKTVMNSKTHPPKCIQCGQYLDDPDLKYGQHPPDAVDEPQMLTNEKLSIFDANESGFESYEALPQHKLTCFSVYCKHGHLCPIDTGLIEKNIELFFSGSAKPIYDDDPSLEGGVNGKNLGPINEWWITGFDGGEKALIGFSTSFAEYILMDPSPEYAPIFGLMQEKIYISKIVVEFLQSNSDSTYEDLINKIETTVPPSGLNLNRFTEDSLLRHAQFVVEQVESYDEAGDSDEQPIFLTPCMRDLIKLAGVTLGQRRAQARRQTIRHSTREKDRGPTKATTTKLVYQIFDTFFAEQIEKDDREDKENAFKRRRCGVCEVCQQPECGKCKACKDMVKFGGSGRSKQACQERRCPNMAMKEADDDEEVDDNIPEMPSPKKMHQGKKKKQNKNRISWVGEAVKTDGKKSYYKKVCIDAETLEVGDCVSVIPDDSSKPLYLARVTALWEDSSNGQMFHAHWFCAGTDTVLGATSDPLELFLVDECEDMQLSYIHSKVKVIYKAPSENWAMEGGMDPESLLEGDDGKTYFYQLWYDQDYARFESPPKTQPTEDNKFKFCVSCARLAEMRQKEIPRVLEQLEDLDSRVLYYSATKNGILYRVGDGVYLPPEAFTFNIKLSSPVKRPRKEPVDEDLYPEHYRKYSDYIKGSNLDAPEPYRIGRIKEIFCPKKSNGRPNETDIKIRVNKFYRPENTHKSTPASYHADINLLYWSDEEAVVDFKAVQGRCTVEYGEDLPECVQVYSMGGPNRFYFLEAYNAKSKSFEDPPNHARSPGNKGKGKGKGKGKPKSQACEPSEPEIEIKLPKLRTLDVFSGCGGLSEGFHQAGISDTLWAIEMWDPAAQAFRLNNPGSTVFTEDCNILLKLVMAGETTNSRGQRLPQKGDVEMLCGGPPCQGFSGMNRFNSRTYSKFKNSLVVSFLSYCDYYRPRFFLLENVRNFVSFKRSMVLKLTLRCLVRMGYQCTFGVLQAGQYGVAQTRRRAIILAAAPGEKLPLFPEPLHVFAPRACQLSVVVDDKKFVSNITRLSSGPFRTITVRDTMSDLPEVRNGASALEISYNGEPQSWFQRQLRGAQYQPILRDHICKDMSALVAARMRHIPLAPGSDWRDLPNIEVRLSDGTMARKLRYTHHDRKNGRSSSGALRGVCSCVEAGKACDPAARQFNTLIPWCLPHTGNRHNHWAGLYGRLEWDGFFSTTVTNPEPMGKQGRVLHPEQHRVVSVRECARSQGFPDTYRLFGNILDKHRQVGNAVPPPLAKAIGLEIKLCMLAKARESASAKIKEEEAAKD

[11] = target: 26S proteasome non-ATPase regulatory subunit 14 (Homo sapiens, UniProt O00487); experiment: inhibition of proteasome subunit RPN11 – biochemical, fluorescence polarization, uHTS hits, confirmation (AID 602368); type: functional
Chain of 26S proteasome non-ATPase regulatory subunit 14 (O00487 whole entry): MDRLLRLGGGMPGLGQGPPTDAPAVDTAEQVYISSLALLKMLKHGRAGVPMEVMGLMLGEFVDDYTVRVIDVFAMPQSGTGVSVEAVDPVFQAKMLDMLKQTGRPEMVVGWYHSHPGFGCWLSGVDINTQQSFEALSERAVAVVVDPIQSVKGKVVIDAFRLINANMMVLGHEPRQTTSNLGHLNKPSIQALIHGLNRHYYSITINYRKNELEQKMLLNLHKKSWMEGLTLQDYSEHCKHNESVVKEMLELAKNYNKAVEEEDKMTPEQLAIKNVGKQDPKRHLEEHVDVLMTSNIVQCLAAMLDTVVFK

**Q.** With COc1ccc(O)c(C(c2c(C)[nH][nH]c2=O)c2c(C)[nH][nH]c2=O)c1 as the compound, how does the IC50 [1] read?
**A.** The IC50 was 33.6 µM (inactive).

**Q.** And the AC50 [2]?
**A.** The AC50 was 1.42 µM (active).

**Q.** What about the IC50 [3] of the same compound?
**A.** Its IC50 is 7.14 µM (active).

**Q.** What about the EC50 (Protein RecA) of the same compound?
**A.** Its EC50 is 1.17 µM (active).

**Q.** Which results are given for Cc1ccc(NC2CCCN(C(=O)c3cccc(-c4ncc[nH]4)c3)C2)cc1C (centres undefined)?
**A.** IC50 (Orexin receptor type 2 [4]): 4.48 µM (active); IC50 (Orexin receptor type 2 [5]): 17.1 µM (inactive); IC50 (CHO-K1): > 66.2 µM (inactive); IC50 [6]: 0.175 µM (active); IC50 [7]: 2.99 µM (active); IC50 [8]: > 49.7 µM (inactive)

**Q.** For O=C(O)CCCCCN1C(=O)/C(=C/c2cn(-c3ccccc3)nc2-c2cccs2)SC1=S, which IC50 [9] is on record?
**A.** Its IC50 is 10.3 µM (active).

**Q.** And the IC50 (Prothrombin)?
**A.** Its IC50 is 29 µM (active).

**Q.** And the IC50 [10]?
**A.** The IC50 was 5.56 µM (active).

**Q.** What about the IC50 [11] of the same compound?
**A.** The IC50 was 7.92 µM (active).
